Results taken from US20040219626A1, “Method for identifying fungicidally active compounds” (priority 2002, published 2004).

Legend:
[1] = molecular target: farnesyl-pyrophosphate synthase (Saccharomyces cerevisiae, UniProt P08524); test: farnesyl-pyrophosphate synthase inhibition assay (coupled assay, malachite green, 384-well MTP); assay type: biochemical; conditions: read-out: p150 (converted)
From the text: A preferred method exploits the fact that two pyrophosphate molecules are liberated in the farnesyl-pyrophosphate synthase reaction. The activity, or the decrease or increase in activity, of the polypeptide according to the invention can thus be determined by enzymatically cleaving the pyrophosphate by means of inorganic pyrophosphatase and subsequently detecting the orthophosphate which has been liberated, using a phosphate detection reagent. The lower, or inhibited, activity of the polypeptide according to the invention is monitored with reference to the photospectrometric determination of the decrease or increase, of the orthophosphate which has been liberated. The concentration of phosphate which has been liberated can then be determined with a phosphate detection reagent at an absorption maximum at 620 nm.
The measurement can also be carried out in formats conventionally used for HTS or UHTS assays, for example in microtitre plates, into which for example a total volume of 5 to 50 μl is introduced per reaction or per well and the individual components are present in one of the above-stated final concentrations (cf. Example 2). […] The polypeptide according to the invention is then added in the abovementioned assay buffer containing the auxiliary enzyme inorganic pyrophosphatase, which is required for the coupled assay, thus starting the reaction. The mixture is then incubated for example for up to 40 minutes at a suitable temperature, and the increase in absorption is measured at 620 nm.
A further measurement is carried out in a corresponding mixture, but without addition of a candidate molecule and without addition of a polypeptide according to the invention (negative control). Another measurement, in turn, is carried out in the absence of a candidate molecule, but in the presence of the polypeptide according to the invention (positive control). The negative and the positive controls thus provide the reference values for the mixtures in the presence of a candidate molecule.
A pI50 value of 8, for example, corresponds to half the maximum inhibition of the enzyme at a concentration of 10 nM.
384-well microtitre plates from Greiner were used for identifying farnesyl-pyrophosphate synthase modulators.
The negative control was pipetted into the first column.
The positive control was pipetted into the second column.
A test substance in a concentration of 2 μM in DMSO was introduced into the remaining columns, 5 μl of the assay buffer being used for diluting the substance to a volume of. […] This was followed by incubation at room temperature for 40 minutes. The reaction was subsequently quenched by addition of 50 μl of malachite green solution (three parts of 0.025% malachite green solution (in water) were mixed with one part of 2% ammonium heptamolybdate solution (in 4 M HCl) and 39 parts of this solution were mixed with one part of 7.5% Tween 20 (in water) immediately prior to testing) and the mixture was incubated for 90 minutes at room temperature. The orthophosphate generated during the reaction was measured by determining the absorption at 620 nm in a Tecan […]luor Plus suitable for MTPs.

[2] = test system: Phytophthora infestans (Plant affected: barley); assay type: in vivo; conditions: concentration at which an efficacy of 50% was achieved, protective
[3] = test system: Phytophthora infestans (Plant affected: tomato); assay type: in vivo; conditions: concentration at which an efficacy of 50% was achieved, protective
[4] = test system: Alternaria solani (plant affected: tomato); test: protective action for plants (spray, inoculation); assay type: in vivo; conditions: concentration for 50% efficacy
Protocol: (§1) The effect, on fungi, of compounds found with the aid of a method according to the invention can also be assayed by testing their protective action for plants. To this end a suitable active substance preparation is prepared. For example 1 part by weight of active substance is mixed with, for example, 24.5 parts by weight of acetone and 24.5 parts by weight of dimethylformamide and 1 part by weight of alkylaryl polyglycol ether as emulsifier, and the concentrate is diluted to the desired concentration.
(§2) To test for protective action, young plants are sprayed with the active substance preparation. After the spray coating has dried on, the plants are inoculated with an aqueous suspension (conidia suspension) of a fungus and then remain for 1 day in an incubation chamber at approximately 20° C. and 100% relative atmospheric humidity.
(§3) The plants are then placed in a greenhouse at approx. 12° C. and a relative atmospheric humidity of approx. 90%.
(§4) The test is evaluated 1 to 12 days after the inoculation. 0% means an efficacy which corresponds to that of the control, while an efficacy of 100% means that no disease is observed.
(§5) The examples in question can be seen from the fact that an affected plant has been stated.

[5] = test system: Erysiphe graminis (plant affected: barley); test: protective action for plants (spray, inoculation); assay type: in vivo; conditions: concentration for 50% efficacy
Protocol: as §1, §2, §3, §4, §5

[6] = test system: Sphaerotheca fuliginea (plant affected: cucumber); test: protective action for plants (spray, inoculation); assay type: in vivo; conditions: concentration for 50% efficacy
Protocol: as §1, §2, §3, §4, §5

[7] = test system: Leptosphaeria nodorum (plant affected: wheat); test: protective action for plants (spray, inoculation); assay type: in vivo; conditions: concentration for 50% efficacy
Protocol: as §1, §2, §3, §4, §5

[8] = test system: Pyricularia oryzae (plant affected: rice); assay type: in vivo; conditions: concentration for 50% efficacy, protective
[9] = molecular target: yeast farnesyl-pyrophosphate synthase (Saccharomyces cerevisiae, UniProt P08524); conditions: substrate of yeast farnesyl-pyrophosphate synthase
[10] = substrate: C=C(C)CCO[P@@](=O)(O)OP(=O)(O)O; test: purified protein, by the assay type; conditions: other: substrate of yeast farnesyl-pyrophosphate synthase

Molecule: CC(=O)[n+]1ccc(-c2cc[n+](C(C)=O)cc2)cc1 [Example 1]
- IC50 [1]: 7.41 µM

Molecule: CC(=O)Nc1nc(-c2ccccc2OCC(N)=O)cc(-c2cccc(NC(=O)c3ccc([N+](=O)[O-])cc3)c2)c1C#N [Example 2]
- IC50 [1]: 31.6 µM

Molecule: CC(Oc1ccccc1)C(=O)Nc1cc(C(=O)N[C@@H](Cc2ccccc2)C(=O)O)ccc1N1CCN(C(c2ccccc2)c2ccccc2)CC1 (some centres unmarked) [Example 3]
- ED50 [2]: 500 ppm
- IC50 [1]: 31.6 µM
- ED50 [3]: 500 ppm

Molecule: CC(C)(CN)CN(C(=O)c1cccs1)c1ccc(-c2ccc(N3CCN(c4ccccn4)CC3)c(NC(=O)CCC3CCCC3)c2)cc1 [Example 4]
- ED50 [2]: 500 ppm
- IC50 [1]: 39.8 µM
- ED50 [3]: 500 ppm

Molecule: COc1ccc(CN(CC(C)(C)CN)C(=O)c2cccc(C)c2)cc1-c1ccc(N2CCC(Cc3ccccc3)CC2)c(NC(=O)c2cccs2)c1 [Example 5]
- IC50 [1]: 25.1 µM
- ED50 [3]: 548 ppm
- ED50 [4]: 548 ppm
- ED50 [5]: 548 ppm
- ED50 [6]: 548 ppm
- ED50 [7]: 548 ppm
- ED50 [8]: 548 ppm

Molecule: CC(C)=CCOP(=O)(O)OP(=O)(O)O [dimethylallyl pyrophosphate]
- Km [9]: 36 µM

B1: yeast farnesyl-pyrophosphate synthase (Saccharomyces cerevisiae S288C) (protein)
chain: MASEKEIRRERFLNVFPKLVEELNASLLAYGMPKEACDWYAHSLNYNTPGGKLNRGLSVVDTYAILSNKTVEQLGQEEYEKVAILGWCIELLQAYFLVADDMMDKSITRRGQPCWYKVPEVGEIAINDAFMLEAAIYKLLKSHFRNEKYYIDITELFHEVTFQTELGQLMDLITAPEDKVDLSKFSLKKHSFIVTFKTAYYSFYLPVALAMYVAGITDEKDLKQARDVLIPLGEYFQIQDDYLDCFGTPEQIGKIGTDIQDNKCSWVINKALELASAEQRKTLDENYGKKDSVAEAKCKKIFNDLKIEQLYHEYEESIAKDLKAKISQVDESRGFKADVLTAFLNKVYKRSK
- Km [10]: 49 µM
